From US20240076380A1, “DEVICE AND METHODS FOR RAPIDLY SCREENING AND TREATING CLINICAL CANCER PATIENTS WITH IMMUNOREGULATORY DRUGS” (Shanghai Lide Biotech Co., Ltd., priority 2022, published 2024)

Columns and labels:
[1] = system: peripheral blood tumor cells and immune cells of acute myeloid leukemia (AML) patients in PVDF capsule tubes; test: IO-FIVE capsule test in nude mice, two AML patients #123 and #124 of Example 5 (CTG cell viability and FACS, day 14); assay type: in vivo, human
Description: BALB/c Nude mice (available from Jiangsu Jicui Yaokang Biotechnology Co. Ltd.) aged 6-8 weeks were ordered from the supplier and kept in the animal house at SPF level. The animals were adaptively kept for at least 3 days before the start of the experiment.
Fresh peripheral blood samples from two acute myeloid leukemia (AML) patients (in the acute phase of AML) were collected and placed in anticoagulant tubes and transported to the central laboratory by cold chain (2-8° C.) within a short period of time.
The peripheral blood samples of different patients were transferred into the biological safety cabinet. The cells were centrifuged using a gradient centrifugation gel (available from SIGMA) with a density of 1.077 g/mL at room temperature. […] After resuspension in cell culture medium (available from Gibco), the cells were counted. […]
3-21 days after administration (e.g., day 14 here), the mice were euthanized, and the PVDF tubes were removed. Cell viability was quantified by the CellTiter-Glo chemiluminescence method. Changes in the relative ratio and phenotype of tumor cells and immune cells in PVDF tubes were detected by flow cytometry. Bioinformatic changes of tumor cells and immune cells in PVDF capsule tubes of clinical samples at day 0 or day 10 were detected by molecular biological methods (RNA sequencing, and DNA sequencing technology, etc.). […]

[2] = system: peripheral blood and/or bone marrow tumor cells and immune cells of acute myeloid leukemia (AML) patients in PVDF capsule tubes; test: IO-FIVE capsule test in nude mice, three AML patients #128, #129, #131 of Example 6 (CTG cell viability and FACS, day 14); assay type: in vivo, human
Description: Fresh peripheral blood samples and/or bone marrow from three acute myeloid leukemia (AML) patients (in the acute phase) were collected and placed in anticoagulant tubes, and transported to the central laboratory by cold chain (2-8° C.) within a short period of time.
Quality control analysis was performed according to the data obtained by flow cytometry so as to meet the requirement that the ratio of CD8+ T cells was at least more than 0.5% (the required minimum concentration), and the tumor cells (CD45^low/+ SSC-A^mid/hi CD33+/CD38+ cells) and the CD45^high SSC-A^lowCD3+ T lymphocytes were uniformly mixed according to a certain ratio (C/T (CD38+Cancer/CD3+T)=1.5:1 to 15:1), and then filled into PVDF tubes and sealed.
Cell viability as measured by luminescence (CTG method) on day 14: according to the viability value of the cells in the control group (as shown in FIG. 21), the proliferation viability of all the cells in the drug administration group was calculated, and then the efficacy of the drug was calculated.
Flow cytometry detection on day14: the relative ratio of tumor cells and immune cells in PVDF tubes was detected by flow cytometry. The differences between tumor cells and immune cells in the drug group and the control group were compared (as shown in FIG. 22). The results were analyzed by Flowjo software.

[3] = system: patient with ovarian cancer; conditions: monotherapy
[4] = system: metastatic tumor tissue (tumor cells and immune cells) of a patient with ovarian cancer in PVDF capsule tubes; test: IO-FIVE capsule test in nude mice, ovarian cancer patient of Example 3 (CTG cell viability and FACS, day 10); assay type: in vivo, human; conditions: tumor sample after addition of autologous TIL cells (C/T 8)
Description: Experimental Animals, Sample Collection, and Cell Processing were the Same as in Example 1.
The following was collected for cell phenotyping identification: a single cell suspension of patient tumor tissue samples before purification, tumor cells after purification, enriched immune cells (containing CD3+ T cells) eluted from the column, and a cell suspension in which tumor cells after purification and immune cells were mixed in a certain ratio (1.5:1 to 15:1), to yield a final cell count of 0.1 to 0.3 million cells. […]
Cells within the Tubing The basic operational steps were the same as those in Example 1. According to the data analyzed by flow cytometry, the CD45− tumor cells and CD3+ T cells were mixed in a certain ratio (about 1.5:1-15:1). […]
3-21 days after administration (day 10 here), the mice were euthanized, and the PVDF tubes were removed. Cell viability was quantified by the CellTiter-Glo chemiluminescence method, and the relative ratio and basic phenotype of tumor cells and immune cells in PVDF tubes were detected by flow cytometry.
Adjusted to the viability value of the cells in the control vehicle group (as shown in FIG. 9), the proliferation viability of all cells in the drug administration group was calculated, and then the efficacy of the drug to be tested was calculated. […]

Row | Compound | response (cell viability by CTG, FACS) ([1]; patient #123, C/T about 15:1, CD8+ T 0.21%) | response / inhibitory effect on cell viability (CTG) compared with control vehicle ([1]; patient #124, C/T about 6:1) | proportion of cancer blasts in the capsules (FACS) ([2]; patient #128) | proportion of cancer blasts in the capsules (FACS) ([2]; patient #129) | AML blasts and CD8+ TILs (FACS) ([2]; patient #131) | response (cell viability, CTG) ([2]; patient #131, C/T 4.5) | clinical response of the patient [3] | viability of total cells / overall tumor viability (CTG) [4]
1 | Daratumumab [CD38 antibody] | did not respond | great response | cancer blasts still occupied a dominant proportion in the capsules | cancer blasts still occupied a dominant proportion in the capsules | less AML blasts and more CD8+ TILs | positive response | – | –
2 | NC(=O)c1cccc2cn(-c3ccc([C@@H]4CCCNC4)cc3)nc12 [PARP inhibitor, Niraparib] | – | – | – | – | – | – | poor clinical response | neither PD1 antibody nor PARP inhibitor mono-therapy could inhibit the overall tumor viability
